System: CN0375-F725-PDC KRAS spheroid viability
Test: Anticancer human tumor CN0375-F725-PDC patient-derived colon carcinoma cell line growth inhibition [KRAS2]
Conditions: spheroids with HUVEC and MSC; for IC50: curve of first compound; for viability, T/C: stronger effect = lower value; active = viability on the fitted dose curve at most 10% of control; inactive = the rest
Excerpt: Multicellular complex tumor spheroid response to RAS pathway inhibitors in combination with a targeted agents in patient-derived cell lines with oncogenic KRAS variants from multiple cancer types
A high-throughput screen of multi-cell type tumor spheroids was designed to identify active combinations of targeted small molecules and KRAS pathway inhibitors. Complex spheroids include a stromal component modeled by human endothelial cells (HUVEC) and fibroblasts modeled by human mesenchymal stem cells (MSCs). The concentration ranges selected for each drug and investigational agent were based upon clinically achievable concentrations if the clinical Cmax of the agent was known.
Compounds. The drugs and investigational agents: BI-3406 (NSC825286), BAY-293 (NSC824723), batoprotafib (TNO155; NSC825523), sotorasib (AMG 510; NSC818433), MRTX1257 (NSC819558), elimusertib (BAY 1895344; NSC800525), molibresib (GSK525762; NSC774829), temuterkib (LY3214996; NSC803410), venetoclax (NSC766270), alisertib (NSC759677), olaparib (NSC753686), talazoparib (NSC767125), erdafitinib (NSC781556), ipatasertib (NSC767898), cabozantinib (NSC761068), nintedanib (NSC756659), abemaciclib (NSC768073), docetaxel (NSC628503), trametinib (NSC758246), and sapanisertib (NSC764658) were obtained from the National Cancer Institute (NCI) Developmental Therapeutics Program Chemical Repository. The FDA-approved anticancer drug set is available from the Developmental Therapeutics Program. […] The stock solutions were prepared in dimethyl sulfoxide (DMSO, Sigma-Aldrich, St. Louis, MO, cat. D2650) at 800-fold the tested concentration and stored at -70 degrees C prior to their use. All drugs and investigational agents were tested over a range starting from a high concentration at or near the clinical Cmax and decreasing in half-log increments. If the clinical Cmax for an agent had not been determined, the highest concentration tested was 10 microM.
Cell Culture. All cells were maintained in an incubator at 37 degrees C and 5% CO2 with 95% humidity. The PDC lines were cultured according to standard operating procedures established by the NCI PDMR (https://pdmr.cancer.gov/sops/default.htm). Briefly, all PDCs were thawed and cultured in Matrigel-coated flasks prepared with a working solution of 1X Ham's F-12 nutrient mix, without supplementation (Invitrogen, Waltham, MA, cat. 11765054), 100 U/mL penicillin-streptomycin (Invitrogen, cat. 15140122), and 2.5% Matrigel (Corning Inc., Corning, NY, cat. 354248) for the first three passages. All PDCs were cultured in complete DMEM/F-12 media containing advanced DMEM/F-12 (Invitrogen, cat. 12634028), 4.9% defined fetal bovine serum, heat inactivated (HyClone Laboratories Inc., Logan, UT, cat. SH30070.03HI), 389 ng/mL hydrocortisone (Sigma-Aldrich, cat. H4001), 9.7 ng/mL human EGF recombinant protein (Invitrogen, cat. PHG0313), 23.4 microg/mL adenine (Sigma-Aldrich, cat. A2786), 97.3 U/mL penicillin-streptomycin (Invitrogen, cat. 15140122), 1.9 mM L-glutamine (Invitrogen, cat. 25030081), and 9.7 microM Y-27632 dihydrochloride (Tocris Bioscience, Bristol, United Kingdom, cat. 1254). The PDCs were cultured in complete DMEM/F12 media without 9.7 microM Y-27632 dihydrochloride for at least two passages prior to the screen. The established cell line HOP-62 was cultured in RPMI 1640 medium, HEPES (Invitrogen, cat. 22400105) with 10% defined fetal bovine serum (HyClone Laboratories Inc., cat. SH30070.03) and 2 mM L-glutamine (Invitrogen, cat. 25030081). The pooled donor HUVEC were cultured in endothelial cell growth medium 2 (PromoCell, Heidelberg, Germany, cat. C-22011) and the hMSC were cultured in mesenchymal stem cell growth medium 2 (PromoCell, cat. C-28009). For all experiments, HUVEC and hMSC were used at passages </=5, while the malignant cell lines were used at passages </=15. […]
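Also: spheroids exposed to agents for 7 days.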

COC(=O)c1ccc2c(C(=Nc3ccc(N(C)C(=O)CN4CCN(C)CC4)cc3)c3ccccc3)c(O)[nH]c2c1 + C=CC(=O)N1CCN(c2nc(OCC3CCCN3C)nc3c2CCN(c2cccc4cccc(C)c24)C3)CC1CC#N
< 31.6 nM: IC50 (second compound 3.16 µM)
2340 nM: IC50 (second compound 0.316 µM)
1480 nM: IC50 (second compound 1 µM)
inactive: viability, T/C (second compound 0.0316 µM, first compound 0.0316 µM) 102% | viability, T/C (second compound 0.0316 µM, first compound 0.1 µM) 95.3% | viability, T/C (second compound 0.0316 µM, first compound 0.316 µM) 91.1% | viability, T/C (second compound 0.0316 µM, first compound 1 µM) 91.5% | viability, T/C (second compound 0.0316 µM, first compound 3.16 µM) 47.6% | viability, T/C (second compound 0.1 µM, first compound 0.0316 µM) 104% | viability, T/C (second compound 0.1 µM, first compound 0.1 µM) 98.8% | viability, T/C (second compound 0.1 µM, first compound 0.316 µM) 92.6% | viability, T/C (second compound 0.1 µM, first compound 1 µM) 89.4% | viability, T/C (second compound 0.1 µM, first compound 3.16 µM) 45.1% | viability, T/C (second compound 0.316 µM, first compound 0.0316 µM) 99.5% | viability, T/C (second compound 0.316 µM, first compound 0.1 µM) 100% | viability, T/C (second compound 0.316 µM, first compound 0.316 µM) 93.2% | viability, T/C (second compound 0.316 µM, first compound 1 µM) 90.8% | viability, T/C (second compound 0.316 µM, first compound 3.16 µM) 35.5% | viability, T/C (second compound 1 µM, first compound 0.0316 µM) 93.8% | viability, T/C (second compound 1 µM, first compound 0.1 µM) 91.3% | viability, T/C (second compound 1 µM, first compound 0.316 µM) 85.2% | viability, T/C (second compound 1 µM, first compound 1 µM) 68.7% | viability, T/C (second compound 1 µM, first compound 3.16 µM) 15.4% | viability, T/C (second compound 3.16 µM, first compound 0.0316 µM) 26.5% | viability, T/C (second compound 3.16 µM, first compound 0.1 µM) 20.2% | viability, T/C (second compound 3.16 µM, first compound 0.316 µM) 21.8%
2800 nM: IC50 (second compound 0.1 µM)
active: viability, T/C (second compound 0.0316 µM, first compound 10 µM) 0.22% | viability, T/C (second compound 0.1 µM, first compound 10 µM) 0.36% | viability, T/C (second compound 0.316 µM, first compound 10 µM) 0.16% | viability, T/C (second compound 1 µM, first compound 10 µM) 0.41% | viability, T/C (second compound 3.16 µM, first compound 1 µM) 5.53% | viability, T/C (second compound 3.16 µM, first compound 3.16 µM) 1.94% | viability, T/C (second compound 3.16 µM, first compound 10 µM) 0.67%
2970 nM: IC50 (second compound 0.0316 µM)
